Laboratory results as given in publication PMC6539903 (Molecules, 2019).

Columns and labels:
[1] = MTT cytotoxicity assay, non-cancer colon cells; assay type: cell-based; conditions: human, NCM460 colonic epithelial cells (non-cancer cell line), n = 3, non-cancer cell line, read-out: CC50 ± SD NUM460
Description: Besides, the MTT assay was performed on a non-cancer line NCM460 to assess the cytotoxicity of the test compound to normal colon cells.
(§1) MCF-7 (human breast cell line), HeLa (human cervical cell line), A549 (human lung cell line), HepG2 (human liver cell line), SW620 (human colorectal cell line) and a non-cancer cell line, NCM460 (Human colonic epithelial cells) were preserved at the State Key Laboratory of Pharmaceutical Biotechnology, Nanjing University (Nanjing, China).
(§2) The antiproliferative activity of the synthetic compounds against the SW620, MCF-7, HeLa, A549, HepG2, and NUM460 cell lines was evaluated by a colorimetric assay based on a modified standard (MTT). […] Thereafter, MTT (5 mg/mL in PBS) was added to each well and incubated for 4 h. 150 μL of DMSO was added to each well and shaken with a shaker. The absorbance (OD 570 nm) was read at 630 nm on an ELISA reader (ELx800, BioTek, montpelier, VT, USA). IC50 values for the compounds were calculated by comparison to DMSO treated control wells. Three replicate wells were used for each drug concentration. Each assay was performed three times.

MCF-7 = assay: MTT antiproliferation assay, MCF-7; assay type: cell-based; conditions: Homo sapiens, MCF7, 48 h, n = 3, read-out: IC50 ± SD MCF-7
Description: as §1, §2

HepG2 = assay: MTT antiproliferation assay, HepG2; assay type: cell-based; conditions: Homo sapiens, 48 h, n = 3, read-out: IC50 ± SD HepG2
Description: as §1, §2

SW620 cells = assay: MTT antiproliferation assay, SW620; assay type: cell-based; conditions: Homo sapiens, SW-620, 48 h, n = 3, read-out: IC50 ± SD SW620
Description: as §1, §2

A549 = assay: MTT antiproliferation assay, A549; assay type: cell-based; conditions: Homo sapiens, 48 h, n = 3, read-out: IC50 ± SD A549
Description: as §1, §2

COX-1 = target: T1, COX-1 (Homo sapiens, UniProt P23219); assay: COX-1 inhibition assay (COX-1 ELISA kit); assay type: biochemical; conditions: mean of four determinations; read-out: IC50 ± SD COX-1
T1 construct: purchased Cayman Chemical 701170
Description: (§3) 3-(4,5-Dimethylthiazol-2-yl)-2,5-diphenyltetrazolium (MTT) were purchased from Beyotime Institute of Biotechnology (Haimen, China). Annexcin V-FITC cell apoptosis assay kit (catalog No.BA11100) was purchased from BIO-BOX (Nanjing, China). Fibronectin (#F1056) and laminin (#L2020) were purchased from Sigma-Aldrich (St. Louis, MO, USA).
(§4) Then 1 M HCl was added to the reaction mixture to stop the reaction, and one-tenth of the volume of saturated stannous chloride (50 mg/mL) was added. The reaction mixture was incubated at room temperature for 5 min, and PGF2 and PGH2 were produced.

HeLa = assay: MTT antiproliferation assay, HeLa; assay type: cell-based; conditions: Homo sapiens, 48 h, n = 3, read-out: IC50 ± SD HeLa
Description: as §1, §2

COX-2 = target: T2, COX-2 (Homo sapiens, UniProt P35354); assay: COX-2 inhibition assay (COX-2 ELISA kit); assay type: biochemical; conditions: for Selectivity Index (SI) (COX-1 IC50/COX-2 IC50): in vitro COX-2 selectivity index; for IC50: mean of four determinations, read-out: IC50 ± SD COX-2
T2 construct: purchased Cayman Chemical 701180
T2 sequence (P35354 18-604): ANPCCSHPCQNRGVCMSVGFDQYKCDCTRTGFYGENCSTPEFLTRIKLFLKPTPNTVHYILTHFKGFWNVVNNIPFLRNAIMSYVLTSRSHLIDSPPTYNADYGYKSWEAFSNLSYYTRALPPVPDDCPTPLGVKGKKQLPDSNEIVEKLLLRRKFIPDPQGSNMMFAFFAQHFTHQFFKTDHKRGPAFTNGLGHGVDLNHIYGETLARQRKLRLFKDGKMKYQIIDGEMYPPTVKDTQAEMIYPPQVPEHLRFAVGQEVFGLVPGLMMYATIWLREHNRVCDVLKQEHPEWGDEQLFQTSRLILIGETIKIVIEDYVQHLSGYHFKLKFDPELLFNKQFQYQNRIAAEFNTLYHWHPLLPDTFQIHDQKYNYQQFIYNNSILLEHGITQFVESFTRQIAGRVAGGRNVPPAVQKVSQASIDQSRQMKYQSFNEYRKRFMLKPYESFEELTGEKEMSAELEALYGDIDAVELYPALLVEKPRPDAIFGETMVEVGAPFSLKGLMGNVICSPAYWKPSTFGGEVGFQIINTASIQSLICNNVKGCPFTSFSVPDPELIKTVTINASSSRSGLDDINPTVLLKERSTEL
Description: as §3, §4

T1 sequence (P23219 24-599): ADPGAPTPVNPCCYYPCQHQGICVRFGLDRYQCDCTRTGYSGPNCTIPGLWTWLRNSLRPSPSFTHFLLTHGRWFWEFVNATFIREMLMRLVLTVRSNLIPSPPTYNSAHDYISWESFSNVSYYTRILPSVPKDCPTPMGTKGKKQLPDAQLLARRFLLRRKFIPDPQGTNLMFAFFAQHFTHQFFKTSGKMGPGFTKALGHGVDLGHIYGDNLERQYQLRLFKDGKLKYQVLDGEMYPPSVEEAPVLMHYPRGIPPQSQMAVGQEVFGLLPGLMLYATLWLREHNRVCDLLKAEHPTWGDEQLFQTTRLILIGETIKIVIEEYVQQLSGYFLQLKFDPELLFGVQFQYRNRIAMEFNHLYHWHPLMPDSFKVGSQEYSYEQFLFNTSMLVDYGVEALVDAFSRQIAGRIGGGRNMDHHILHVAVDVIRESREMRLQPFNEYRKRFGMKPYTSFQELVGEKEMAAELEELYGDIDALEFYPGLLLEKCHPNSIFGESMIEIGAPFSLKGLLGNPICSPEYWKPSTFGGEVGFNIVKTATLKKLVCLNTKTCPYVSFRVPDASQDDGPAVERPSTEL

SMILES | melting point [°C] | IC50 (MCF-7) [µM] | IC50 (HepG2) [µM] | IC50 (SW620 cells) [µM] | IC50 (A549) [µM] | IC50 (COX-1) [µM] | IC50 (HeLa) [µM] | Selectivity Index (SI) (COX-1 IC50/COX-2 IC50) (COX-2) | IC50 (COX-2) [µM] | CC50 at 48 h [1] [µM]
Cc1cccc(C2=NN(c3ccc(S(N)(=O)=O)cc3)C(c3ccc4c(c3)OCO4)C2)c1 (centres unmarked) [Compound 4e, 4-(5-(Benzo[d][1,3]dioxol-5-yl)-3-(m-tolyl)-4,5-dihydro-1H-pyrazol-1-yl)benzenesulfonamide] | 187 to 188 | 6.52 ± 0.46 | 9.44 ± 0.74 | 3.88 ± 0.36 | 4.54 ± 0.18 | 29.77 ± 0.23 | 7.22 ± 0.65 | 19.20 | 1.55 ± 0.06 | 110 ± 7.71
NS(=O)(=O)c1ccc(N2N=C(c3ccccc3F)CC2c2ccc3c(c2)OCCO3)cc1 (centres unmarked) [Compound 4y, 4-(5-(2,3-Dihydrobenzo[b][1,4]dioxin-6-yl)-3-(2-fluorophenyl)-4,5-dihydro-1H-pyrazol-1-yl)benzenesulfonamide] | 191 to 192 | 8.96 ± 0.74 | 15.4 ± 0.84 | 5.51 ± 0.37 | 7.83 ± 0.58 | > 60 | 10.2 ± 0.72 | >27.40 | 2.19 ± 0.21 | 178 ± 12.7
NS(=O)(=O)c1ccc(N2N=C(c3cc(F)cc(F)c3)CC2c2ccc3c(c2)OCCO3)cc1 (centres unmarked) [Compound 4w, 4-(3-(3,5-Difluorophenyl)-5-(2,3-dihydrobenzo[b][1,4]dioxin-6-yl)-4,5-dihydro-1H-pyrazol-1-yl)benzenesulfonamide] | 182 to 183 | 6.37 ± 0.39 | 9.08 ± 0.71 | 3.78 ± 0.22 | 4.34 ± 0.28 | 55.02 ± 0.36 | 7.04 ± 0.47 | 36.44 | 1.51 ± 0.09 | 105 ± 8.87
NS(=O)(=O)c1ccc(N2N=C(c3ccccc3)CC2c2ccc3c(c2)OCCO3)cc1 (centres unmarked) [Compound 4k, 4-(5-(2,3-Dihydrobenzo[b][1,4]dioxin-6-yl)-3-phenyl-4,5-dihydro-1H-pyrazol-1-yl)benzenesulfonamide] | 156 to 157 | 7.54 ± 0.42 | 11.9 ± 0.91 | 4.56 ± 0.14 | 5.92 ± 0.31 | > 60 | 8.44 ± 0.48 | >32.97 | 1.82 ± 0.16 | 138 ± 11
NS(=O)(=O)c1ccc(N2N=C(c3ccccc3F)CC2c2ccc3c(c2)OCO3)cc1 (centres unmarked) [Compound 4j, 4-(5-(Benzo[d][1,3]dioxol-5-yl)-3-(2-fluorophenyl)-4,5-dihydro-1H-pyrazol-1-yl)benzenesulfonamide] | 180 to 181 | 7.51 ± 0.57 | 11.8 ± 0.96 | 4.54 ± 0.29 | 5.86 ± 0.36 | > 60 | 8.41 ± 0.29 | >33.15 | 1.81 ± 0.09 | 137 ± 12.7
Cc1ccc(C2=NN(c3ccc(S(N)(=O)=O)cc3)C(c3ccc4c(c3)OCO4)C2)cc1C (centres unmarked) [Compound 4f, 4-(5-(Benzo[d][1,3]dioxol-5-yl)-3-(3,4-dimethylphenyl)-4,5-dihydro-1H-pyrazol-1-yl)benzenesulfonamide] | 179 to 180 | 7.21 ± 0.62 | 11.2 ± 1.03 | 4.34 ± 0.33 | 5.49 ± 0.44 | 58.14 ± 0.47 | 8.05 ± 0.77 | 33.61 | 1.73 ± 0.11 | 129 ± 8.96
NS(=O)(=O)c1ccc(N2N=C(c3ccc(Br)cc3)CC2c2ccc3c(c2)OCCO3)cc1 (centres unmarked) [Compound 4q, 4-(3-(4-Bromophenyl)-5-(2,3-dihydrobenzo[b][1,4]dioxin-6-yl)-4,5-dihydro-1H-pyrazol-1-yl)benzenesulfonamide] | 153 to 154 | 5.47 ± 0.29 | 6.92 ± 0.28 | 3.18 ± 0.19 | 3.14 ± 0.25 | 26.64 ± 0.26 | 5.96 ± 0.39 | 20.98 | 1.27 ± 0.03 | 80.3 ± 8.01
COc1cccc(C2=NN(c3ccc(S(N)(=O)=O)cc3)C(c3ccc4c(c3)OCCO4)C2)c1 (centres unmarked) [Compound 4u, 4-(5-(2,3-Dihydrobenzo[b][1,4]dioxin-6-yl)-3-(3-methoxyphenyl)-4,5-dihydro-1H-pyrazol-1-yl)benzenesulfonamide] | 146 to 147 | 10.6 ± 0.67 | 15.3 ± 1.09 | 6.63 ± 0.42 | 7.81 ± 0.37 | > 60 | 12.2 ± 0.85 | >22.73 | 2.64 ± 0.17 | 178 ± 10.7

The next lines start with results.

melting point [°C] | IC50 (MCF-7) [µM] | IC50 (HepG2) [µM] | IC50 (SW620 cells) [µM] | IC50 (A549) [µM] | IC50 (COX-1) [µM] | IC50 (HeLa) [µM] | Selectivity Index (SI) (COX-1 IC50/COX-2 IC50) (COX-2) | IC50 (COX-2) [µM] | SMILES | CC50 at 48 h [1] [µM]
159 to 161 | 6.31 ± 0.39 | 8.94 ± 0.67 | 3.74 ± 0.12 | 4.26 ± 0.19 | > 60 | 6.97 ± 0.51 | >40.54 | 1.48 ± 0.02 | Cc1cc(C2=NN(c3ccc(S(N)(=O)=O)cc3)C(c3ccc4c(c3)OCCO4)C2)ccc1F (centres unmarked) [Compound 4t, 4-(5-(2,3-Dihydrobenzo[b][1,4]dioxin-6-yl)-3-(4-fluoro-3-methylphenyl)-4,5-dihydro-1H-pyrazol-1-yl)benzenesulfonamide] | 104 ± 4.74
195 to 196 | 6.44 ± 0.37 | 9.24 ± 0.74 | 3.83 ± 0.27 | 4.43 ± 0.33 | 38.41 ± 0.34 | 7.12 ± 0.69 | 25.10 | 1.53 ± 0.12 | NS(=O)(=O)c1ccc(N2N=C(c3ccc(F)cc3)CC2c2ccc3c(c2)OCCO3)cc1 (centres unmarked) [Compound 4o, 4-(5-(2,3-Dihydrobenzo[b][1,4]dioxin-6-yl)-3-(4-fluorophenyl)-4,5-dihydro-1H-pyrazol-1-yl)benzenesulfonamide] | 107 ± 9.21
153 to 154 | 4.22 ± 0.16 | 5.92 ± 0.39 | 2.35 ± 0.11 | 2.58 ± 0.18 | 43.87 ± 0.37 | 4.46 ± 0.36 | 46.67 |  | Cc1ccc(C2=NN(c3ccc(S(N)(=O)=O)cc3)C(c3ccc4c(c3)OCCO4)C2)cc1 (centres unmarked) [Compound 4l, 4-(5-(2,3-Dihydrobenzo[b][1,4]dioxin-6-yl)-3-(p-tolyl)-4,5-dihydro-1H-pyrazol-1-yl)benzenesulfonamide] | 68.7 ± 5.28
166 to 168 | 7.51 ± 0.47 | 11.8 ± 0.59 | 4.54 ± 0.31 | 5.86 ± 0.47 | > 60 | 8.41 ± 0.17 | >33.33 | 1.8 ± 0.05 | Cc1ccc(C2=NN(c3ccc(S(N)(=O)=O)cc3)C(c3ccc4c(c3)OCCO4)C2)cc1C (centres unmarked) [Compound 4s, 4-(5-(2,3-Dihydrobenzo[b][1,4]dioxin-6-yl)-3-(3,4-dimethylphenyl)-4,5-dihydro-1H-pyrazol-1-yl)benzenesulfonamide] | 137 ± 3.98
